Experimental data from US20240189279A1, “IMMUNOMODULATORY COMPOSITIONS AND METHODS OF USE THEREOF” (THE TEXAS A&M UNIVERSITY SYSTEM, priority 2022, published 2024).
Entries after “also recorded” stand apart in the source; their conditions may differ.

What was measured:
[1] = test system: hepatocytes; assay: Cultured hepatocytes (lipid droplet loaded, TNF-α; Fasn/SREBP-1c expression); format: cell-based
[2] = test system: endotoxin-treated murine bone marrow derived macrophages; assay: Cytokine expression in endotoxin-treated bone marrow derived macrophages; format: cell-based
[3] = test system: fatty acid metabolism enzymes in liver; assay: Liver targeted proteomics of fatty acid metabolism and antioxidant enzymes in WD mice; format: in vivo, mice (male B6 129SF1/J)
Source text: Animal experiments. Male B6 129SF1/J mice at 6 weeks of age were obtained from Jackson Laboratories (Bar Harbor, ME). Mice were acclimatized to the animal facility for one week. At the start of the experiment, mice were randomly divided into four groups (n=10 for each group). Three of the four groups were fed ad libitum a Western diet (WD) with 40% Kcal from fat and containing 0.15% cholesterol (D12079B, Research Diets) and a sugar water (SW) solution (23.1 g/L d-fructose+18.9 g/L d-glucose) as previously described (DIAMOND model (15)). After 8 weeks, the three groups of WD-fed mice were randomly selected for treatment with vehicle (WD group) or low (WD-50 group) or high dose (WD-100 group) of […]. The WD group was fed WD and drank sugar water. The WD-50 and WD-100 groups were fed WD and drank sugar water containing, respectively, 50 or 100 mg […] per kg body weight. The treatments were continued for another 8 weeks. Water bottles containing SW and […] or only SW were changed every other day. A fourth group of mice was fed a low-fat control diet (D12450B, Research Diets) and normal water for 16 weeks (CN group) (FIG. 9A). FIG. 9A presents the study design. Mice belonging to the same treatment group were housed together (5 mice/cage). Mice were maintained on 12:12-h light-dark cycles. All procedures were performed in accordance with Texas A&M University Health Sciences Center Institutional Animal Care and Use Committee guidelines under an approved animal use protocol (AUP #2017-0145). Targeted proteomics. A panel of 15 proteins having differential abundance in the untargeted proteomics data were selected for targeted measurements using product ion scans for representative peptides (Table 7). The relative abundance of a target protein was determined by quantifying the corresponding peptide peak's AUCs in MultiQuant and normalizing the value by the sample protein weight.

[4] = test system: AMPK; assay: AMPK Western blot in RAW 264.7 macrophages stimulated with palmitate and LPS; format: cell-based, murine; details: RAW 264.7, 1 mM I3A pre-treatment
[5] = test system: inflammatory cytokines in liver tissue; assay: Liver cytokine measurements (bead-based 13-cytokine panel) in WD mice; format: in vivo, mice (male B6 129SF1/J); details: week 16
Source text: Animal experiments. Male B6 129SF1/J mice at 6 weeks of age were obtained from Jackson Laboratories (Bar Harbor, ME). Mice were acclimatized to the animal facility for one week. At the start of the experiment, mice were randomly divided into four groups (n=10 for each group). Three of the four groups were fed ad libitum a Western diet (WD) with 40% Kcal from fat and containing 0.15% cholesterol (D12079B, Research Diets) and a sugar water (SW) solution (23.1 g/L d-fructose+18.9 g/L d-glucose) as previously described (DIAMOND model (15)). After 8 weeks, the three groups of WD-fed mice were randomly selected for treatment with vehicle (WD group) or low (WD-50 group) or high dose (WD-100 group) of […]. The WD group was fed WD and drank sugar water. The WD-50 and WD-100 groups were fed WD and drank sugar water containing, respectively, 50 or 100 mg […] per kg body weight. The treatments were continued for another 8 weeks. Water bottles containing SW and […] or only SW were changed every other day. […] The supernatant was transferred into a new tube and the total protein concentration was measured with the BCA protein assay (Thermo Fisher Scientific, Waltham, MA). A panel of 13 cytokines was quantified with a bead-based ELISA kit (BioLegend, San Diego, CA) following the manufacturer's protocol. […]

O=C([O-])Cc1c[nH]c2ccccc12.[Na+] [I3A, Indole-3-acetate sodium salt]
TNF-α induced production of saturated free fatty acids ([1]; cultured hepatocytes loaded with lipid droplets (mimicking steatosis), AhR dependent): abrogated TNF-α induced production of saturated free fatty acids
expression of Fasn and SREBP-1c ([1]; hepatocytes, AhR dependent manner): decreased the expression of Fasn and its transcriptional regulator SREBP-1c
expression of IL-1, TNF-α, and MCP-1 [2]: dose-dependently downregulate the expression of IL-1, TNF-α, and MCP-1
decrease of Fasn in liver ([3]; I3A treated vs WD): 86%
abundance of antioxidant enzymes catalase (CatB) and glutathione peroxidase 1 (Gpx1) in liver ([3]; I3A treatment, WD-50 and WD-100): dose-dependent decrease
abundance of acetyl-CoA carboxylase-2 (Acab) in liver ([3]; WD-100 group vs WD): not significantly different
abundance of fatty acid synthase (Fasn) in liver ([3]; WD-100 group vs WD): decreased in the WD-100 group compared to the WD group
abundance of mitochondrial β-oxidation enzymes Acadl, Acadm, Acads and Hadh in liver ([3]; WD-100 group vs WD): significantly decreased in the WD-100 group compared to WD
abundance of peroxisomal β-oxidation enzymes Acox1, Acaala and Acaalb in liver ([3]; WD-100 group vs WD): A similar trend was observed
abundance of CD36 in liver ([3]; WD-100 group vs WD, sodium salt): did not affect CD36 abundance; also recorded: decreased, but not significantly
p-AMPK level [4]: upregulated p-AMPK to baseline levels
total AMPK level [4]: without altering total AMPK
liver IL-10 ([5]; I3A treated vs WD): downregulated this cytokine
expression of pro-inflammatory cytokines in liver (panel, TNFα, IL-6, Mcp-1 etc.) ([5]; WD-50 and WD-100 vs WD, sodium salt): dose-dependently attenuated the production of type 1, 2 and 3 cytokines; also recorded: reduced the expression of these cytokines in a dose-dependent manner
